From paper PMC12348844, “Anti-Trypanosoma cruzi Potential of New Pyrazole-Imidazoline Derivatives” (Molecules, 2025)
Where two headings read alike, the source gives them in different places.

Legend:
[1] = tested on: T. cruzi Dm28c-Luc trypomastigotes; test: Anti-T. cruzi in vitro assay, trypomastigotes (luminescence); format: cell-based; conditions: Trypanosoma cruzi, 24 h, mean ± SD
Protocol: (§1) The genetically modified Trypanosoma cruzi, clone Dm28c (TcI), expressing luciferase (Dm28c-Luc), was kindly provided by Dr. Cristina Henriques from Oswaldo Cruz Institute—Fiocruz. The parasites were maintained using Vero cell cultures in RPMI 1640 medium enriched with 10% FBS. At 4 days post-infection (dpi), the trypomastigotes released into the culture supernatant were harvested, subjected to centrifugation at 800× g for 20 min at 4 °C, and quantified with a Neubauer chamber. The isolated trypomastigotes were subsequently used for phenotypic screening, drug efficacy assessments employing a 3D cardiac model, washout experiments to evaluate reversibility, drug combination studies, and enzymatic assays.
Drug susceptibility assays were performed on T. cruzi Dm28c-Luc, a genetically engineered parasite expressing luciferase. The drug screening used both trypomastigotes and intracellular amastigotes. Trypomastigotes (1 × 10^6 parasites/well) were added to white 96-well plates with clear bottoms. […] The luminescence was measured using a Glomax Multi-Detection plate reader (Promega Corporation, Madison, WI, USA).

[2] = tested on: T. cruzi Dm28c-Luc intracellular amastigotes; test: Anti-T. cruzi in vitro assay, intracellular amastigotes in Vero cells (luminescence); format: cell-based, Trypanosoma cruzi; conditions: for SI (selectivity index = CC50/IC50): CC50 Vero cells / IC50 intracellular amastigotes
Protocol: as §1
To evaluate the effect of pyrazole-imidazoline derivatives against intracellular amastigotes, Vero cells (1.5 × 10^4 cells/well) were cultured in a white 96-well plate with a clear bottom and subsequently infected with T. cruzi Dm28c-Luc at a 10:1 parasite-to-host cell ratio for 24 h. […] Parasite viability was measured by luminescence following the addition of luciferin (300 µg/mL). Background measurements (non-infected cultures incubated with luciferin, as well as luciferin-only controls) were performed to ensure the signal specifically originates from viable parasites. The IC50 and IC90 values, denoting the concentrations that achieve 50% and 90% reductions in viable parasites, respectively, were calculated using GraphPad Prism 8.2.1 software. Additionally, the selectivity index (SI) was calculated as the cytotoxic concentration (CC50) ratio in mammalian cells to the IC50 against T. cruzi, providing insight into the therapeutic window. Potency against intracellular amastigotes was evaluated using the formula 6—Log10 (IC50).

[3] = Cytotoxicity assay, Vero cells (CellTiter-Glo); format: cell-based; conditions: African green monkey, mean ± SD
Protocol: Vero cells, obtained from the Rio de Janeiro Cell Bank (BCRT code 0245) and maintained through weekly subculturing with a dissociation solution containing 0.25% trypsin-EDTA, initiated once the monolayer reached an 80–100% confluence. Following harvesting, the cells were washed and resuspended in RPMI 1640 medium enriched with 10% fetal bovine serum (FBS). Cultures were maintained at 37 °C in a 5% CO2-humidified incubator. These cultures were used for drug screening assays and for producing culture-derived trypomastigotes of T. cruzi.
Cytotoxicity assays were performed using Vero cells, which were seeded at a density of 1.5 × 10^4 cells per well in white 96-well plates with clear bottoms. Following a 24 h adhesion period, the cultures were incubated at 37 °C in a 5% CO2 atmosphere. […] After 72 h of incubation, cell viability was assessed by adding CellTiter-Glo reagent (Promega Corporation, Madison, WI, USA), which induces cell lysis and reacts with the released ATP to produce luminescence. The resulting luminescence was measured using a Glomax Multi-Detection plate reader (Promega Corporation, Madison, WI, USA). The half-maximal inhibitory concentration (CC50) for cell viability was then calculated using GraphPad Prism software version 8.2.1.

[4] = Trypanosoma cruzi, Vero, 72 h, Dm28c-Luc in Vero cells, mean ± SD, read-out: Intracellular Amastigotes IC50
[5] = Trypanosoma cruzi, Vero, intracellular amastigotes, 6 − Log10(IC50), read-out: pIC50 (potency) (converted)
[6] = Trypanosoma cruzi, 72 h, Dm28c-Luc in Vero cells, mean ± SD

SMILES | IC50 [1] [µM] | IC90 [1] [µM] | SI (selectivity index = CC50/IC50) [2] | IC50 [2, 4] [µM] | IC50 [2, 5] [µM] | IC90 [2, 6] [µM] | CC50 at 72 h [3] [µM] | IC50 ([2]; 72 h, Dm28c-Luc in Vero cells, mean ± SD, read-out: Intracellular Amastigotes IC50) [µM]
Nc1c(C2=NCCN2)cnn1-c1ccc(Cl)cc1Cl [1a, 5-amino-1-(2,4-dichlorophenyl)-4-(4,5-dihydro-1H-imidazol-2-yl)-1H-pyrazole] | > 100 | > 100 | >12.2 | 40.8 ± 3 | 75.9 | > 100 | > 500 | –
Nc1c(C2=NCCN2)cnn1-c1cccc(F)c1 [1b, 5-amino-1-(3-fluorophenyl)-4-(4,5-dihydro-1H-imidazol-2-yl)-1H-pyrazole] | > 100 | > 100 | – | > 100 | > 100 | > 100 | > 500 | –
Cc1ccc(-n2ncc(C3=NCCN3)c2N)cc1 [1c, 5-amino-1-(4-methylphenyl)-4-(4,5-dihydro-1H-imidazol-2-yl)-1H-pyrazole] | > 100 | > 100 | – | > 100 | > 100 | > 100 | > 500 | –
Cc1ccc(-n2cc(C3=NCCN3)cn2)cc1 [1d, 1-(4-methylphenyl)-4-(4,5-dihydro-1H-imidazol-2-yl)-1H-pyrazole] | > 100 | > 100 | >14.7 | 33.9 ± 0.8 | 39.8 | > 100 | > 500 | –
Cc1ccc(-n2ncc(C3=NCCN3)c2N)cc1Cl [1e, 5-amino-1-(3-chloro-4-methylphenyl)-4-(4,5-dihydro-1H-imidazol-2-yl)-1H-pyrazole] | 76.5 ± 10.3 | > 100 | >7.2 | 68.9 ± 8.1 | 79.4 | 96.6 ± 0.2 | > 500 | –
Cc1cc(Cl)ccc1-n1ncc(C2=NCCN2)c1N [1f, 5-amino-1-(4-chloro-2-methylphenyl)-4-(4,5-dihydro-1H-imidazol-2-yl)-1H-pyrazole] | > 100 | > 100 | >6.5 | 76.1 ± 1.2 | 79.4 | > 100 | > 500 | –
Cc1cccc(-n2ncc(C3=NCCN3)c2N)c1 [1g, 5-amino-1-(3-methylphenyl)-4-(4,5-dihydro-1H-imidazol-2-yl)-1H-pyrazole] | > 100 | > 100 | >6.3 | 78.9 ± 2.2 | 79.4 | > 100 | > 500 | –
Cc1cccc(-n2cc(C3=NCCN3)cn2)c1 [1h, 1-(3-methylphenyl)-4-(4,5-dihydro-1H-imidazol-2-yl)-1H-pyrazole] | > 100 | > 100 | >19.1 | 26.1 ± 3.4 | 25.1 | 89.7 ± 7.4 | > 500 | 26.2 ± 3.4
Nc1c(C2=NCCN2)cnn1-c1cccc(C(F)(F)F)c1 [1i, 5-amino-1-(3-trifluoromethylphenyl)-4-(4,5-dihydro-1H-imidazol-2-yl)-1H-pyrazole] | > 100 | > 100 | >9.6 | 51.9 ± 3.6 | 63.1 | > 100 | > 500 | –
Nc1c(C2=NCCN2)cnn1-c1ccc(C(F)(F)F)cc1 [1j, 5-amino-1-(4-trifluoromethylphenyl)-4-(4,5-dihydro-1H-imidazol-2-yl)-1H-pyrazole] | > 100 | > 100 | >5.6 | 88.1 ± 0.2 | 100 | > 100 | > 500 | –
Nc1c(C2=NCCN2)cnn1-c1cc(C(F)(F)F)cc(C(F)(F)F)c1 [1l, 5-amino-1-((3,5-ditrifluoromethyl)phenyl)-4-(4,5-dihydro-1H-imidazol-2-yl)-1H-pyrazole] | > 100 | > 100 | 16.7 | 27.7 ± 2 | 31.6 | 80.1 ± 11.4 | 464 ± 15.2 | –
